What was measured:
[1] = tested on: MCF7; test: Cytotoxicity against human MCF7 cells assessed as inhibition of cell proliferation after 72 hrs by MTT assay; assay type: functional, cell-based; conditions: MCF7, 72 h
[2] = tested on: HepG2; test: Cytotoxicity against human HepG2 cells assessed as inhibition of cell proliferation after 72 hrs by MTT assay; assay type: functional, cell-based; conditions: HepG2, 72 h
[3] = tested on: A549; test: Cytotoxicity against human A549 cells assessed as inhibition of cell proliferation after 72 hrs by MTT assay; assay type: functional, cell-based; conditions: A549, 72 h
[4] = Cytotoxicity against human PC3 cells assessed as inhibition of cell proliferation after 72 hrs by MTT assay; assay type: functional, cell-based, PC-3
[5] = Cytotoxicity against human BGC823 cells assessed as inhibition of cell proliferation after 72 hrs by MTT assay; assay type: functional, cell-based; conditions: BGC-823, 72 h
[6] = Homo sapiens, PC-3, 72 h, read-out: IC50

| SMILES | IC50 [1] [µM] | IC50 [2] [µM] | IC50 [3] [µM] | IC50 [4, 6] [µM] | IC50 [5] [µM] | IC50 ([4]; pc-3) |
| --- | --- | --- | --- | --- | --- | --- |
| CC1(C)CC[C@]2(C(=O)OCCCCCCCCn3ccc(=O)[nH]c3=O)CC[C@]3(C)C(=CC[C@@H]4[C@@]5(C)CC[C@H](O)C(C)(C)[C@@H]5CC[C@]43C)[C@@H]2C1 | < 0.1 | 1.05 | 8.47 | 20.9 | 14.9 |  |
| Cc1cn(CCOC(=O)[C@]23CCC(C)(C)C[C@H]2C2=CC[C@@H]4[C@@]5(C)CC[C@H](O)C(C)(C)[C@@H]5CC[C@@]4(C)[C@]2(C)CC3)c(=O)[nH]c1=O | 10.2 | 5.41 | 35.1 | 1.93 | 0.16 |  |
| CC1(C)CC[C@]2(C(=O)OCCn3ccc(=O)[nH]c3=O)CC[C@]3(C)C(=CC[C@@H]4[C@@]5(C)CC[C@H](O)C(C)(C)[C@@H]5CC[C@]43C)[C@@H]2C1 | 45.9 | 15.2 | 0.36 | 9.61 | 0.37 |  |
| CC1(C)CC[C@]2(C(=O)OCCCCn3ccc(=O)n(CCCCOC(=O)[C@]45CCC(C)(C)C[C@H]4C4=CC[C@@H]6[C@@]7(C)CC[C@H](O)C(C)(C)[C@@H]7CC[C@@]6(C)[C@]4(C)CC5)c3=O)CC[C@]3(C)C(=CC[C@@H]4[C@@]5(C)CC[C@H](O)C(C)(C)[C@@H]5CC[C@]43C)[C@@H]2C1 | 130 | 3.95 | 4.09 | 4.79 | 0.15 |  |
| Cc1cn(CCCCOC(=O)[C@]23CCC(C)(C)C[C@H]2C2=CC[C@@H]4[C@@]5(C)CC[C@H](O)C(C)(C)[C@@H]5CC[C@@]4(C)[C@]2(C)CC3)c(=O)[nH]c1=O | 1.03 | 2.41 | 4.73 | 0.43 | 1.13 |  |
| Cc1cn(CCCCCCOC(=O)[C@]23CCC(C)(C)C[C@H]2C2=CC[C@@H]4[C@@]5(C)CC[C@H](O)C(C)(C)[C@@H]5CC[C@@]4(C)[C@]2(C)CC3)c(=O)n(CCCCCCOC(=O)[C@]23CCC(C)(C)C[C@H]2C2=CC[C@@H]4[C@@]5(C)CC[C@H](O)C(C)(C)[C@@H]5CC[C@@]4(C)[C@]2(C)CC3)c1=O | 33.6 | 4.84 | < 0.1 | 0.87 | 0.62 |  |
| Cc1cn(CCOC(=O)[C@]23CCC(C)(C)C[C@H]2C2=CC[C@@H]4[C@@]5(C)CC[C@H](O)C(C)(C)[C@@H]5CC[C@@]4(C)[C@]2(C)CC3)c(=O)n(CCOC(=O)[C@]23CCC(C)(C)C[C@H]2C2=CC[C@@H]4[C@@]5(C)CC[C@H](O)C(C)(C)[C@@H]5CC[C@@]4(C)[C@]2(C)CC3)c1=O | 3.02 | 5.19 | 0.79 | 1.16 | 1.89 |  |
| Cc1cn(CCCCOC(=O)[C@]23CCC(C)(C)C[C@H]2C2=CC[C@@H]4[C@@]5(C)CC[C@H](O)C(C)(C)[C@@H]5CC[C@@]4(C)[C@]2(C)CC3)c(=O)n(CCCCOC(=O)[C@]23CCC(C)(C)C[C@H]2C2=CC[C@@H]4[C@@]5(C)CC[C@H](O)C(C)(C)[C@@H]5CC[C@@]4(C)[C@]2(C)CC3)c1=O | 3.69 | 3.02 | < 0.1 | 1.28 | 16 |  |
| Cc1cn(CCCCCCCCOC(=O)[C@]23CCC(C)(C)C[C@H]2C2=CC[C@@H]4[C@@]5(C)CC[C@H](O)C(C)(C)[C@@H]5CC[C@@]4(C)[C@]2(C)CC3)c(=O)[nH]c1=O | 16.1 | 8.72 | 1.11 | 0.23 | 0.29 |  |
| CC1(C)CC[C@]2(C(=O)O)CC[C@]3(C)C(=CC[C@@H]4[C@@]5(C)CC[C@H](O)C(C)(C)[C@@H]5CC[C@]43C)[C@@H]2C1 [OLEANOLIC_ACID] | 12.6 | 15.9 | 16.3 | 72.7 | 23.7 |  |
| CC1(C)CC[C@]2(C(=O)OCCCCn3ccc(=O)[nH]c3=O)CC[C@]3(C)C(=CC[C@@H]4[C@@]5(C)CC[C@H](O)C(C)(C)[C@@H]5CC[C@]43C)[C@@H]2C1 | 70.4 | 4.21 | 0.11 | 1.45 | 0.93 |  |
| Cc1cn(CCCCCCCCOC(=O)[C@@]23CCC(C)(C)C[C@@H]2C2=CC[C@H]4[C@]5(C)CC[C@@H](O)C(C)(C)[C@H]5CC[C@]4(C)[C@@]2(C)CC3)c(=O)n(CCCCCCCCOC(=O)[C@@]23CCC(C)(C)C[C@@H]2C2=CC[C@H]4[C@]5(C)CC[C@@H](O)C(C)(C)[C@H]5CC[C@]4(C)[C@@]2(C)CC3)c1=O | 4.45 | 4.83 | < 0.1 | 20 | 3.11 |  |
| O=c1[nH]cc(F)c(=O)[nH]1 [FLUOROURACIL] | 21.5 | 55.7 | 22.6 | 12.2 | 8.82 |  |
| CC1(C)CC[C@]2(C(=O)OCCn3ccc(=O)n(CCOC(=O)[C@]45CCC(C)(C)C[C@H]4C4=CC[C@@H]6[C@@]7(C)CC[C@H](O)C(C)(C)[C@@H]7CC[C@@]6(C)[C@]4(C)CC5)c3=O)CC[C@]3(C)C(=CC[C@@H]4[C@@]5(C)CC[C@H](O)C(C)(C)[C@@H]5CC[C@]43C)[C@@H]2C1 | 29.8 | 111 | 9.21 |  | 0.86 | Not Active |
| CC1(C)CC[C@]2(C(=O)OCCCCCCn3ccc(=O)n(CCCCCCOC(=O)[C@]45CCC(C)(C)C[C@H]4C4=CC[C@@H]6[C@@]7(C)CC[C@H](O)C(C)(C)[C@@H]7CC[C@@]6(C)[C@]4(C)CC5)c3=O)CC[C@]3(C)C(=CC[C@@H]4[C@@]5(C)CC[C@H](O)C(C)(C)[C@@H]5CC[C@]43C)[C@@H]2C1 | < 0.1 | 0.99 | 6.98 | 15.5 | 0.68 |  |
| CC1(C)CC[C@]2(C(=O)OCCCCCCCCn3ccc(=O)n(CCCCCCCCOC(=O)[C@]45CCC(C)(C)C[C@H]4C4=CC[C@@H]6[C@@]7(C)CC[C@H](O)C(C)(C)[C@@H]7CC[C@@]6(C)[C@]4(C)CC5)c3=O)CC[C@]3(C)C(=CC[C@@H]4[C@@]5(C)CC[C@H](O)C(C)(C)[C@@H]5CC[C@]43C)[C@@H]2C1 | 3.78 | 10.3 | 37.1 | 22.2 | 0.27 |  |
| Cc1cn(CCCCCCOC(=O)[C@]23CCC(C)(C)C[C@H]2C2=CC[C@@H]4[C@@]5(C)CC[C@H](O)C(C)(C)[C@@H]5CC[C@@]4(C)[C@]2(C)CC3)c(=O)[nH]c1=O | 4.01 | 5.09 | < 0.1 | 8.37 | 0.37 |  |

Source: ChEMBL document CHEMBL3817739, “Synthesis and cytotoxic evaluation of several oleanolic aciduracil/thymine conjugates” (Medchemcomm, 2016)
